Consider ten compounds from patent US20240270821A1, “GIP/GLP1/GCG TRI-RECEPTOR AGONISTS AND USES THEREOF” (priority 2023, published 2024).

Common to all, as to type: cell-based
Assay [1] deals with T1, hGLP-1R (Homo sapiens, UniProt P43220). Put plainly: Functional cAMP activation in the presence of 0.1% casein (no HSA). Conditions: read-out: Relative cAMP EC50, hGLP-1R.
Assay [2] concerns the target T2, hGIPR (Homo sapiens, UniProt P48546).
T2 sequence (P48546 22-466): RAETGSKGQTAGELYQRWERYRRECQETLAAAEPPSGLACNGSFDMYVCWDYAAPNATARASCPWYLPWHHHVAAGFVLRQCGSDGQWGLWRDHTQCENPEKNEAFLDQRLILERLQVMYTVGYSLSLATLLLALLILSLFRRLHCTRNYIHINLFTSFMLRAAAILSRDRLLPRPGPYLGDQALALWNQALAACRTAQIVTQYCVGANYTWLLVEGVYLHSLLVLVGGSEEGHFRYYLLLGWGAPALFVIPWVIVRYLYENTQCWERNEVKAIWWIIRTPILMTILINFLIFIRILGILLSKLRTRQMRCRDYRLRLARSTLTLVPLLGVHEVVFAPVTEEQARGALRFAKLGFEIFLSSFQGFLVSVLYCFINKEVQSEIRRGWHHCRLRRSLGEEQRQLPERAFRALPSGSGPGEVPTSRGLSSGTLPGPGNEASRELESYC
The description is as above. Conditions: read-out: Relative cAMP EC50, hGIPR.

Assay [3] deals with T2, hGIPR. Put plainly: Functional cAMP activity in the presence of 1% HSA. Conditions: read-out: cAMP Rel EC50, hGIPR.
For assay [4], the target named is T1, hGLP-1R. Put plainly: Functional cAMP activity in the presence of 1% HSA. Conditions: read-out: cAMP Rel EC50, hGLP-1R.
Another assay has as its target human GcgR (Homo sapiens, UniProt P47871). Put plainly: Functional cAMP activity in the presence of 1% HSA. Conditions: read-out: cAMP Rel EC50, hGcgR.
The next assay concerns the target hGcgR (Homo sapiens, UniProt P47871). Put plainly: Functional cAMP activation in the presence of 0.1% casein (no HSA). Conditions: read-out: Relative cAMP EC50, hGcgR.
Where [5] appears, read: in the presence of 0.1% casein (no HSA), geometric mean.

By EC50 is commonly meant the concentration that produces a half-maximal response.

Where two headings read alike, the source gives them in different places. Starred links: 1 amine or outer side, 2 acyl side, 3 side chain; linkers in the order of their positions; H or OH if unused. Non-standard residues stand in square brackets, D forms with d. Residues, ends and D or L forms follow the SMILES beside them. Groups on a side chain read outwards from the residue. No end group written: not given here. *: point of attachment. C18 diacid = O=C(O)CCCCCCCCCCCCCCCCC(=O)*; αMePhe(2-F) = C[C@](N)(Cc1ccccc1F)C(=O)O; γGlu = O=C(O)[C@H](CCC(=O)[*:2])N[*:1]; αMe4Pal = C[C@](N)(Cc1ccncc1)C(=O)O; αMeY = C[C@](N)(Cc1ccc(O)cc1)C(=O)O; αMeF = C[C@](N)(Cc1ccccc1)C(=O)O; 4Pal = N[C@@H](Cc1ccncc1)C(=O)O; αMeL = CC(C)C[C@](C)(N)C(=O)O; αMeS = C[C@](N)(CO)C(=O)O; Orn = NCCC[C@H](N)C(=O)O; AEEA = NCCOCCOCC(=O)O; Aib = CC(C)(N)C(=O)O
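Wherever Relative cAMP EC50, hGIPR is given: intracellular cAMP rise after 30 min at 37 °C read by HTRF against a standard curve, scaled between buffer alone (0%) and top control ligand concentration (100%), four-parameter fit.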
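Wherever Relative cAMP EC50, hGLP-1R is given: intracellular cAMP rise after 30 min at 37 °C read by HTRF, normalized between buffer only (0%) and maximal control ligand (100%), four-parameter variable-slope fit.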
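Wherever Relative cAMP EC50, hGcgR is given: intracellular cAMP rise after 30 min at 37 °C, read by HTRF against a cAMP standard curve, scaled from buffer only (0%) to maximal control ligand response (100%).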

T1 sequence (P43220 24-463): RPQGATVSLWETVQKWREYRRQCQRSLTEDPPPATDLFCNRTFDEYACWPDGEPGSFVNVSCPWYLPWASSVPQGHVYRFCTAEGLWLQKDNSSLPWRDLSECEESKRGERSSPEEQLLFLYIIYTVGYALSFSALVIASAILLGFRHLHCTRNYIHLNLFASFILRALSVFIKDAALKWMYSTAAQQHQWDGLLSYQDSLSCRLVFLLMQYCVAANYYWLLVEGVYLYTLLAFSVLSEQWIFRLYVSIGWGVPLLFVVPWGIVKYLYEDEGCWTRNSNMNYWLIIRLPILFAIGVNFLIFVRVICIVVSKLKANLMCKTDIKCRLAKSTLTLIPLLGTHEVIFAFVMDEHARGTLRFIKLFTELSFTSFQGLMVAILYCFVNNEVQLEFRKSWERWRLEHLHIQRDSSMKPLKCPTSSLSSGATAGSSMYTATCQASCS
Chain of human GcgR (P47871 26-477): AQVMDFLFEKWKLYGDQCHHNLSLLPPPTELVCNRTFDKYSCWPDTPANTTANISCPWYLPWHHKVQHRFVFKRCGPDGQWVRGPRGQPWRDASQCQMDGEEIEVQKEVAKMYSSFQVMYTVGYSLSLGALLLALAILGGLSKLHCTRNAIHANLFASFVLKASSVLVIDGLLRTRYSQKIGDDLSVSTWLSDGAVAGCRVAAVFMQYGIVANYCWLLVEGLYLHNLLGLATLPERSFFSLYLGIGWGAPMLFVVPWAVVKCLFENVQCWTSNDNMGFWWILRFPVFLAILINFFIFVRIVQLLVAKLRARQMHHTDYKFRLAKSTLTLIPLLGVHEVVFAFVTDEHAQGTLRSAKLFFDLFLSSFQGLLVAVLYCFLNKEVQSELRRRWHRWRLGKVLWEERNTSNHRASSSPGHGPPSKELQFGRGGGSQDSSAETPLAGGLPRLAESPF
Chain of hGcgR (P47871 26-477): as above

Consider `CC[C@H](C)[C@H](NC(=O)[C@H](Cc1ccccc1)NC(=O)[C@H](C)NC(=O)C(C)(C)NC(=O)[C@H](CCC(N)=O)NC(=O)[C@H](C)NC(=O)[C@H](CCCCNC(=O)CC[C@H](NC(=O)CC[C@H](NC(=O)CCCCCCCCCCCCCCCCC(=O)O)C(=O)O)C(=O)O)NC(=O)[C@H](CCCCN)NC(=O)[C@H](CC(=O)O)NC(=O)[C@H](CC(C)C)NC(=O)[C@H](CC(C)C)NC(=O)[C@@H](NC(=O)[C@H](CO)NC(=O)[C@H](Cc1ccc(O)cc1)NC(=O)[C@H](CC(=O)O)NC(=O)[C@H](CO)NC(=O)[C@@H](NC(=O)[C@](C)(Cc1ccccc1F)NC(=O)[C@@H](NC(=O)CNC(=O)[C@H](CCC(N)=O)NC(=O)C(C)(C)NC(=O)[C@@H](N)Cc1c[nH]cn1)[C@@H](C)O)[C@@H](C)O)[C@@H](C)CC)C(=O)N[C@@H](CCC(=O)O)C(=O)N[C@@H](Cc1ccc(O)cc1)C(=O)N[C@@H](CC(C)C)C(=O)N[C@@H](CCC(=O)O)C(=O)N[C@@H](CCC(=O)O)C(=O)NCC(=O)NCC(=O)N1CCC[C@H]1C(=O)N[C@@H](CO)C(=O)N[C@@H](CO)C(=O)NCC(=O)N[C@@H](C)C(=O)N1CCC[C@H]1C(=O)N1CCC[C@H]1C(=O)N1CCC[C@H]1C(=O)N[C@@H](CO)C(N)=O` [Example 426] (H-H[Aib]QGT[αMePhe(2-F)]TSDYSILLDKK([γGlu-γGlu-C18 diacid])AQ[Aib]AFIEYLEEGGPSSGAPPPS-NH2), for which the EC50 at hGLP-1R [1] is 0.139 nM; at hGIPR [2] it was 0.079 nM; on hGIPR [3] it was 29.8 nM; at hGLP-1R [4], 16.6 nM; at human GcgR it was 740 nM; at hGcgR, 4.33 nM.
On to “Y[Aib]QGTFTSD[4Pal]S[Orn][αMeL]LD[Orn]K([γGlu-γGlu-C18 diacid])AQ[αMe4Pal]QFIE[αMeY]LIEGGPSSGAPPPSGSEE-NH2 [Example 972]”, for which the EC50 at hGLP-1R [1] (setting [5]) was 2.05 nM; at hGIPR [2] (setting [5]) it was 0.34 nM; on hGIPR [3] it was 30.4 nM; at hGLP-1R [4], 327 nM; on human GcgR it was 660 nM; at hGcgR (setting [5]) it was 4.19 nM.
For the compound “H-Y[Aib]QGTFTSD[4Pal]SK[αMeL]LDKK([γGlu-γGlu-C18 diacid])AQ[Aib]AFIEYLIE[Aib]GPSSGAPPPSGSE-NH2 [Example 904]”, the EC50 on hGLP-1R [1] (setting [5]) was determined as 1.94 nM; on hGIPR [2] (setting [5]), 0.194 nM; at hGIPR [3], 15 nM; on hGLP-1R [4], 198 nM; at human GcgR, 1330 nM; on hGcgR (setting [5]) it was 9.88 nM.
Regarding “H-Y[Aib]QGTFTSD[4Pal]S[Orn][αMeL]LDKK([γGlu-γGlu-C18 diacid])AQ[αMe4Pal]AFIEYLIAGGPSSGEPPPSGTEEE-NH2 [Example 982]”, the EC50 at hGLP-1R [1] (setting [5]) amounted to 4.94 nM; on hGIPR [2] (setting [5]) it was 0.328 nM; on hGIPR [3], 19.4 nM; on hGLP-1R [4] it was 310 nM; on human GcgR, 307 nM; on hGcgR (setting [5]), 3.91 nM.
As to `CC[C@H](C)[C@H](NC(=O)[C@H](CCCCN)NC(=O)[C@H](CC(=O)O)NC(=O)[C@H](CC(C)C)NC(=O)[C@](C)(CC(C)C)NC(=O)[C@@H](NC(=O)[C@H](CO)NC(=O)[C@H](Cc1ccc(O)cc1)NC(=O)[C@H](CC(=O)O)NC(=O)[C@H](CO)NC(=O)[C@@H](NC(=O)[C@](C)(Cc1ccccc1F)NC(=O)[C@@H](NC(=O)CNC(=O)[C@H](CCC(N)=O)NC(=O)C(C)(C)NC(=O)[C@@H](N)Cc1ccc(O)cc1)[C@@H](C)O)[C@@H](C)O)[C@@H](C)CC)C(=O)N[C@@H](C)C(=O)N[C@@H](CCC(N)=O)C(=O)NC(C)(C)C(=O)N[C@@H](C)C(=O)N[C@@H](Cc1ccccc1)C(=O)N[C@H](C(=O)N[C@@H](CCCCNC(=O)COCCOCCNC(=O)CC[C@H](NC(=O)CCCCCCCCCCCCCCCCC(=O)O)C(=O)O)C(=O)N[C@@H](Cc1ccc(O)cc1)C(=O)N[C@@H](CC(C)C)C(=O)N[C@@H](CCC(=O)O)C(=O)N[C@@H](CCC(=O)O)C(=O)NCC(=O)NCC(=O)N1CCC[C@H]1C(=O)N[C@@H](CO)C(=O)N[C@@H](CO)C(=O)NCC(=O)N[C@@H](C)C(=O)N1CCC[C@H]1C(=O)N1CCC[C@H]1C(=O)N1CCC[C@H]1C(=O)N[C@@H](CO)C(N)=O)[C@@H](C)CC` [Example 455] (H-Y[Aib]QGT[αMePhe(2-F)]TSDYSI[αMeL]LDKIAQ[Aib]AFIK([AEEA-γGlu-C18 diacid])YLEEGGPSSGAPPPS-NH2), the EC50 is 0.49 nM on hGLP-1R [1]; 0.0182 nM on hGIPR [2]; 5.2 nM at hGIPR [3]; 105 nM at hGLP-1R [4]; 1200 nM on human GcgR; 4.36 nM on hGcgR.
Take “H-Y[Aib]QGT[αMeF]TSD[4Pal][αMeS]I[αMeL]LD[Orn]K([γGlu-γGlu-C18 diacid])AQ[αMe4Pal]EFI[dE][αMeY]LIEGGPSSGEPPPSGGGE-NH2 [Example 1175]”: the EC50 on hGLP-1R [1] (setting [5]) turned out to be 0.572 nM; at hGIPR [2] (setting [5]), 0.00962 nM; on hGIPR [3] it was 0.768 nM; on hGLP-1R [4], 60.7 nM; at human GcgR, 282 nM; on hGcgR (setting [5]), 2.08 nM.
On to “H-Y[Aib]QGT[αMePhe(2-F)]TSD[4Pal]SI[αMeL]LD[Orn]K([AEEA-γGlu-C18 diacid])AQ[αMe4Pal][Orn]FI[dE][αMeY]LIEGGPSSGEPPPESEE-NH2 [Example 753]”, for which the EC50 on hGLP-1R [1] amounted to 0.271 nM; at hGIPR [2], 0.0127 nM; on hGIPR [3], 1.86 nM; on hGLP-1R [4], 38.2 nM; at human GcgR, 351 nM; at hGcgR, 2.7 nM.
In the case of “H-Y[Aib]QGTFTSD[4Pal][αMeS]Q[αMeL]LD[Orn]K([dE-γGlu-C18 diacid])AQ[αMe4Pal]QFIQ[αMeY]LIE[Aib]GPSSGAPPPSGGGE-NH2 [Example 1186]”, the EC50 was 0.594 nM on hGLP-1R [1] (setting [5]); 0.0404 nM on hGIPR [2] (setting [5]); 3.17 nM on hGIPR [3]; 52.1 nM at hGLP-1R [4]; 164 nM on human GcgR; 1.46 nM at hGcgR (setting [5]).
In the case of “H-Y[Aib]QGTFTSDFS[Orn][αMeL]LDKK([AEEA-γGlu-C18 diacid])AQ[αMe4Pal]AFIEYLIE[Aib]GPSSGAPPPSGS-NH2 [Example 811]”, the EC50 on hGLP-1R [1] (setting [5]) was 1.48 nM; on hGIPR [2] (setting [5]) it was 0.14 nM; at hGIPR [3], 25.8 nM; on hGLP-1R [4], 246 nM; on human GcgR, 175 nM; on hGcgR (setting [5]), 0.724 nM.
`CC[C@H](C)[C@H](NC(=O)[C@H](Cc1ccccc1)NC(=O)[C@H](C)NC(=O)C(C)(C)NC(=O)[C@H](CCC(N)=O)NC(=O)[C@H](C)NC(=O)[C@H](CCCCNC(=O)COCCOCCNC(=O)CC[C@H](NC(=O)CCCCCCCCCCCCCCCCC(=O)O)C(=O)O)NC(=O)[C@H](CCCCN)NC(=O)[C@H](CC(=O)O)NC(=O)[C@H](CC(C)C)NC(=O)[C@](C)(CC(C)C)NC(=O)[C@@H](NC(=O)[C@H](CO)NC(=O)[C@H](Cc1ccncc1)NC(=O)[C@H](CC(=O)O)NC(=O)[C@H](CO)NC(=O)[C@@H](NC(=O)[C@](C)(Cc1ccccc1F)NC(=O)[C@@H](NC(=O)CNC(=O)[C@H](CCC(N)=O)NC(=O)C(C)(C)NC(=O)[C@@H](N)Cc1ccc(O)cc1)[C@@H](C)O)[C@@H](C)O)[C@@H](C)CC)C(=O)N[C@@H](CCC(=O)O)C(=O)N[C@@H](Cc1ccc(O)cc1)C(=O)N[C@@H](CC(C)C)C(=O)N[C@@H](CCC(=O)O)C(=O)N[C@@H](CCC(=O)O)C(=O)NCC(=O)NCC(=O)N1CCC[C@H]1C(=O)N[C@@H](CO)C(=O)N[C@@H](CO)C(=O)NCC(=O)N[C@@H](C)C(=O)N1CCC[C@H]1C(=O)N[C@@H](CCC(=O)O)C(=O)N1CCC[C@H]1C(=O)N[C@@H](CO)C(N)=O` [Example 443] (H-Y[Aib]QGT[αMePhe(2-F)]TSD[4Pal]SI[αMeL]LDKK([AEEA-γGlu-C18 diacid])AQ[Aib]AFIEYLEEGGPSSGAPEPS-NH2): the EC50 worked out at 0.572 nM at hGLP-1R [1]; 0.0291 nM at hGIPR [2]; 1.57 nM on hGIPR [3]; 34.3 nM on hGLP-1R [4]; 265 nM on human GcgR; 6.09 nM on hGcgR.
